Values of other authors in US10987332B2, “Sprayable aqueous composition comprising glyceryl trinitrate” (G. POHL-BOSKAMP GMBH & CO. KG, priority 2013, dated 2021).

What was measured:
Sprague-Dawley rats [1] = details: RIP (Modules 2-4)
Sprague-Dawley rats [2] = details: rat, in vivo

Row | Structure (SMILES) | VPB-Score (Sprague-Dawley rats [1]) | Infarct size (Sprague-Dawley rats [2]) | solubility in water
1 | O=[N+]([O-])O[C@H]1CO[C@H]2[C@@H]1OC[C@H]2O[N+](=O)[O-] [ISDN, isosorbide dinitrate] | 4.57 | 7.59±4.38% | –
2 | O=[N+]([O-])OCC(CO[N+](=O)[O-])O[N+](=O)[O-] [NTG, nitroglycerin] | – | – | about 1 mg/ml
